What was measured:
barnyardgrass [1] = assay: Test A preemergence; type: in vivo, Echinochloa crus-galli
Summary of the method: (§1)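 Scoring was visual, on a scale where 100 means complete control and 0 means no effect, comparing treated with untreated plants around 10 days post-application. Compounds in surfactant-containing non-phytotoxic solvent were sprayed onto soil preemergence or onto one- to two-leaf seedlings (2–10 cm) postemergence.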

crabgrass, large [2] = assay: Test A preemergence; type: in vivo, Digitaria sanguinalis
Summary of the method: as §1

foxtail, giant [3] = assay: Test A preemergence; type: in vivo, Setaria faberii
Summary of the method: as §1

morningglory [4] = assay: Test A preemergence; type: in vivo, Ipomoea spp.; conditions: for Morningglory plant response rating: 0 to 100 scale
Summary of the method: as §1

pigweed [5] = assay: Test A preemergence; type: in vivo, Amaranthus retroflexus; conditions: for Pigweed plant response rating: 0 to 100 scale
Summary of the method: as §1

velvetleaf [6] = assay: Test A preemergence; type: in vivo, Abutilon theophrasti; conditions: for Velvetleaf plant response rating: 0 to 100 scale
Summary of the method: as §1

wheat [7] = assay: Test A preemergence; type: in vivo, Triticum aestivum; conditions: for Wheat plant response rating: 0 to 100 scale
Summary of the method: as §1

corn [8] = assay: Test A preemergence; type: in vivo, Zea mays
Summary of the method: as §1

barnyardgrass [9] = assay: Test A postemergence; type: in vivo, Echinochloa crus-galli; conditions: Postemergence
Summary of the method: as §1

crabgrass, large [10] = assay: Test A postemergence; type: in vivo, Digitaria sanguinalis
Summary of the method: as §1

foxtail, giant [11] = assay: Test A postemergence; type: in vivo, Setaria faberii
Summary of the method: as §1

morningglory [12] = assay: Test A postemergence; type: in vivo, Ipomoea spp.
Summary of the method: as §1

pigweed [13] = assay: Test A postemergence; type: in vivo, Amaranthus retroflexus
Summary of the method: as §1

velvetleaf [14] = assay: Test A postemergence; type: in vivo, Abutilon theophrasti
Summary of the method: as §1

wheat [15] = assay: Test A postemergence; type: in vivo, Triticum aestivum
Summary of the method: as §1

corn [16] = assay: Test A postemergence; type: in vivo, Zea mays
Summary of the method: as §1

rice [17] = assay: Test C flooded paddy test; type: in vivo, Oryza sativa; conditions: Flood
Source text: (§2) At time of treatment, test pots were flooded to 3 cm above the soil surface, treated by application of test compounds directly to the paddy water, and then maintained at that water depth for the duration of the test. Treated plants and controls were maintained in a greenhouse for 13 to 15 days, after which time all species were compared to controls and visually evaluated. […] A dash (-) response means no test result.

sedge, umbrella [18] = assay: Test C flooded paddy test; type: in vivo, Cyperus difformis; conditions: Flood
Source text: as §2

ducksalad [19] = assay: Test C flooded paddy test; type: in vivo, Heteranthera limosa; conditions: Flood
Source text: as §2

barnyardgrass [20] = assay: Test C flooded paddy test; type: in vivo, Echinochloa crus-galli; conditions: Flood
Source text: as §2

rice [21] = assay: Test B flood; type: in vivo, Oryza sativa; conditions: 250 g ai/ha, visual rating on 0 to 100 scale (0 no effect, 100 complete control), 13 to 15 days
Summary of the method: (§3)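 Visual ratings (0 = no effect, 100 = complete control) versus untreated controls were taken 13–15 days after treatment of greenhouse plants. Treatment was added to paddy water held at 3 cm depth on 2-leaf-stage seedlings.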

sedge, umbrella [22] = assay: Test B flood; type: in vivo, Cyperus difformis; conditions: 250 g ai/ha, visual rating on 0 to 100 scale (0 no effect, 100 complete control), 13 to 15 days
Summary of the method: as §3

ducksalad [23] = assay: Test B flood; type: in vivo, Heteranthera limosa; conditions: 250 g ai/ha, visual rating on 0 to 100 scale (0 no effect, 100 complete control), 13 to 15 days
Summary of the method: as §3

barnyardgrass [24] = assay: Test B flood; type: in vivo, Echinochloa crus-galli; conditions: 250 g ai/ha, visual rating on 0 to 100 scale (0 no effect, 100 complete control), 13 to 15 days
Summary of the method: as §3

[25] = Preemergence, 500 g ai/ha, 0 to 100 scale, 0 no effect, 100 complete control
[26] = preemergence, 125 g ai/ha, visual injury, 0 to 100 scale, approx. 10 days
[27] = Preemergence, 500 g ai/ha, 0 no effect, 100 complete control
[28] = preemergence, 125 g ai/ha, visual injury, approx. 10 days
[29] = 125 g ai/ha, 0 to 100 scale, 0 no effect, 100 complete control
[30] = Postemergence, 500 g ai/ha, visual rating after approx. 10 days, 0 to 100 scale (0 no effect, 100 complete control)
[31] = postemergence, 125 g ai/ha, about 10 days, visual rating on 0 to 100 scale (0 no effect, 100 complete control)
[32] = 31 g ai/ha, scale 0 to 100 (0 no effect, 100 complete control)
[33] = 62 g ai/ha, scale 0 to 100 (0 no effect, 100 complete control)
[34] = Preemergence, 1000 g ai/ha, 0 to 100 scale, 0 no effect, 100 complete control
[35] = Preemergence, 1000 g ai/ha, 0 no effect, 100 complete control
[36] = Postemergence, 1000 g ai/ha, visual rating after approx. 10 days, 0 to 100 scale (0 no effect, 100 complete control)
[37] = preemergence, 125 g ai/ha, visual injury approx. 10 days after treatment
[38] = preemergence, 500 g ai/ha, visual injury after approx. 10 days, 0 to 100 scale (0 no effect, 100 complete control)
[39] = Postemergence, 125 g ai/ha, 0 to 100 scale, 0 no effect, 100 complete control
[40] = Postemergence, 500 g ai/ha, 0 to 100 scale (0 no effect, 100 complete control)

CNC(=O)c1cc(C)n(Cc2cccc(OC(F)(F)F)c2)n1 [Compound 3]
Barnyardgrass plant response rating (barnyardgrass [1]; [25]): 0 | Barnyardgrass plant response rating (barnyardgrass [1]; [26]): 0 | Crabgrass, Large plant response rating (crabgrass, large [2]; [25]): 30 | Crabgrass, Large plant response rating (crabgrass, large [2]; [26]): 0 | Foxtail, Giant plant response rating (foxtail, giant [3]; [25]): 20 | Foxtail, Giant plant response rating (foxtail, giant [3]; [26]): 0 | Morningglory plant response rating (morningglory [4]; [27]): 0 | Morningglory plant response rating (morningglory [4]; [28]): 0 | Pigweed plant response rating (pigweed [5]; [27]): 100 | Pigweed plant response rating (pigweed [5]; [28]): 0 | Velvetleaf plant response rating (velvetleaf [6]; [27]): 0 | Velvetleaf plant response rating (velvetleaf [6]; [28]): 0 | Wheat plant response rating (wheat [7]; [28]): 0 | Corn plant response rating (corn [8]; [25]): 0 | Corn plant response rating (corn [8]; [26]): 0 | Barnyardgrass plant response rating (barnyardgrass [9]; [29]): 0 | Barnyardgrass plant response rating (barnyardgrass [9]; 500 g ai/ha, visual rating after approx. 10 days, 0 to 100 scale (0 no effect, 100 complete control)): 0 | Crabgrass, Large plant response rating (crabgrass, large [10]; [30]): 10 | Crabgrass, Large plant response rating (crabgrass, large [10]; [31]): 0 | Foxtail, Giant plant response rating (foxtail, giant [11]; [30]): 0 | Foxtail, Giant plant response rating (foxtail, giant [11]; [31]): 0 | Morningglory plant response rating (morningglory [12]; [30]): 20 | Morningglory plant response rating (morningglory [12]; [31]): 10 | Pigweed plant response rating (pigweed [13]; [30]): 70 | Pigweed plant response rating (pigweed [13]; [31]): 20 | Velvetleaf plant response rating (velvetleaf [14]; [30]): 20 | Velvetleaf plant response rating (velvetleaf [14]; [31]): 0 | Wheat plant response rating (wheat [15]; [30]): 0 | Wheat plant response rating (wheat [15]; [31]): 0 | Corn plant response rating (corn [16]; [30]): 10 | Corn plant response rating (corn [16]; [31]): 0 | Plant response rating, Rice (rice [17]; [32]): 0 | Plant response rating, Rice (rice [17]; [33]): 0 | Plant response rating, Rice (rice [17]; 125 g ai/ha, scale 0 to 100): 0 | Plant response rating, Rice (rice [17]; 250 g ai/ha, scale 0 to 100): 0 | Plant response rating, Sedge, Umbrella (sedge, umbrella [18]; [32]): 0 | Plant response rating, Sedge, Umbrella (sedge, umbrella [18]; [33]): 0 | Plant response rating, Sedge, Umbrella (sedge, umbrella [18]; 125 g ai/ha, scale 0 to 100): 0 | Plant response rating, Sedge, Umbrella (sedge, umbrella [18]; 250 g ai/ha, scale 0 to 100): 0 | Plant response rating, Ducksalad (ducksalad [19]; [32]): 40 | Plant response rating, Ducksalad (ducksalad [19]; [33]): 50 | Plant response rating, Ducksalad (ducksalad [19]; 125 g ai/ha, scale 0 to 100): 50 | Plant response rating, Ducksalad (ducksalad [19]; 250 g ai/ha, scale 0 to 100): 60 | Plant response rating, Barnyardgrass (barnyardgrass [20]; [32]): 0 | Plant response rating, Barnyardgrass (barnyardgrass [20]; [33]): 0 | Plant response rating, Barnyardgrass (barnyardgrass [20]; 125 g ai/ha, scale 0 to 100): 0 | Plant response rating, Barnyardgrass (barnyardgrass [20]; 250 g ai/ha, scale 0 to 100): 0

CCCc1cc(C(=O)NCC(F)(F)F)nn1Cc1cccc(C(F)(F)F)c1 [Compound 31]
Barnyardgrass plant response rating (barnyardgrass [1]; [34]): 50 | Crabgrass, Large plant response rating (crabgrass, large [2]; [34]): 100 | Foxtail, Giant plant response rating (foxtail, giant [3]; [34]): 100 | Morningglory plant response rating (morningglory [4]; [35]): 40 | Pigweed plant response rating (pigweed [5]; [35]): 90 | Velvetleaf plant response rating (velvetleaf [6]; [35]): 50 | Wheat plant response rating (wheat [7]; [35]): 10 | Corn plant response rating (corn [8]; [34]): 10 | Barnyardgrass plant response rating (barnyardgrass [9]; 1000 g ai/ha, visual rating after approx. 10 days, 0 to 100 scale (0 no effect, 100 complete control)): 60 | Crabgrass, Large plant response rating (crabgrass, large [10]; [36]): 60 | Foxtail, Giant plant response rating (foxtail, giant [11]; [36]): 70 | Morningglory plant response rating (morningglory [12]; [36]): 100 | Pigweed plant response rating (pigweed [13]; [36]): 100 | Velvetleaf plant response rating (velvetleaf [14]; [36]): 100 | Wheat plant response rating (wheat [15]; [36]): 30 | Corn plant response rating (corn [16]; [36]): 20 | Plant response rating, Rice (rice [17]; [32]): 0 | Plant response rating, Rice (rice [17]; [33]): 0 | Plant response rating, Rice (rice [17]; 125 g ai/ha, scale 0 to 100): 0 | Plant response rating, Rice (rice [17]; 250 g ai/ha, scale 0 to 100): 15 | Plant response rating, Sedge, Umbrella (sedge, umbrella [18]; [32]): 30 | Plant response rating, Sedge, Umbrella (sedge, umbrella [18]; [33]): 70 | Plant response rating, Sedge, Umbrella (sedge, umbrella [18]; 125 g ai/ha, scale 0 to 100): 85 | Plant response rating, Sedge, Umbrella (sedge, umbrella [18]; 250 g ai/ha, scale 0 to 100): 85 | Plant response rating, Barnyardgrass (barnyardgrass [20]; [32]): 0 | Plant response rating, Barnyardgrass (barnyardgrass [20]; [33]): 0 | Plant response rating, Barnyardgrass (barnyardgrass [20]; 125 g ai/ha, scale 0 to 100): 0 | Plant response rating, Barnyardgrass (barnyardgrass [20]; 250 g ai/ha, scale 0 to 100): 20

CCCNC(=O)c1cc(COC)n(Cc2cc(C(F)(F)C(F)(F)F)nn2C)n1 [Compound 228]
Barnyardgrass plant response rating (0 to 100 scale, 0 is no effect, 100 is complete control) (barnyardgrass [1]; [37]): 10 | Barnyardgrass plant response rating (barnyardgrass [1]; [38]): 90 | Crabgrass, Large plant response rating (0 to 100 scale) (crabgrass, large [2]; [37]): 90 | Crabgrass, Large plant response rating (crabgrass, large [2]; [38]): 100 | Foxtail, Giant plant response rating (0 to 100 scale) (foxtail, giant [3]; [37]): 30 | Foxtail, Giant plant response rating (foxtail, giant [3]; [38]): 80 | Morningglory plant response rating (0 to 100 scale) (morningglory [4]; [37]): 30 | Pigweed plant response rating (0 to 100 scale) (pigweed [5]; [37]): 90 | Velvetleaf plant response rating (0 to 100 scale) (velvetleaf [6]; [37]): 0 | Wheat plant response rating (0 to 100 scale) (wheat [7]; [37]): 0 | Corn plant response rating (0 to 100 scale) (corn [8]; [37]): 0 | Corn plant response rating (corn [8]; [38]): 30 | Barnyardgrass plant response rating (barnyardgrass [9]; [29]): 0 | Barnyardgrass plant response rating (barnyardgrass [9]; 500 g ai/ha, 0 to 100 scale (0 no effect, 100 complete control)): 50 | Crabgrass, Large plant response rating (crabgrass, large [10]; [39]): 20 | Crabgrass, Large plant response rating (crabgrass, large [10]; [40]): 60 | Foxtail, Giant plant response rating (foxtail, giant [11]; [39]): 10 | Foxtail, Giant plant response rating (foxtail, giant [11]; [40]): 60 | Morningglory plant response rating (morningglory [12]; [39]): 50 | Morningglory plant response rating (morningglory [12]; [40]): 100 | Pigweed plant response rating (pigweed [13]; [39]): 30 | Pigweed plant response rating (pigweed [13]; [40]): 80 | Velvetleaf plant response rating (velvetleaf [14]; [39]): 10 | Velvetleaf plant response rating (velvetleaf [14]; [40]): 30 | Wheat plant response rating (wheat [15]; [39]): 0 | Wheat plant response rating (wheat [15]; [40]): 10 | Corn plant response rating (corn [16]; [39]): 10 | Corn plant response rating (corn [16]; [40]): 50 | Plant response rating, Rice (rice [21]): 0 | Plant response rating, Sedge, Umbrella (sedge, umbrella [22]): 30 | Plant response rating, Ducksalad (ducksalad [23]): 30 | Plant response rating, Barnyardgrass (barnyardgrass [24]): 0

Reference: patent US20150105252A1, “SUBSTITUTED PYRAZOLES AS HERBICIDES” (E I DU PONT DE NEMOURS AND COMPANY, priority 2013, published 2015)
